Earlier results on one molecule are cited in patent US8952000B2, “Cholesterol absorption inhibitor and omega 3 fatty acids for the reduction of cholesterol and for the prevention or reduction of cardiovascular, cardiac and vascular events” (Pivotal Therapeutics Inc., priority 2011, dated 2015).

As for `O=C1[C@H](CC[C@H](O)c2ccc(F)cc2)[C@@H](c2ccc(O)cc2)N1c1ccc(F)cc1` [Ezetimibe, (3R,4S)-1-(p-fluorophenyl)-3-[(3S)-3-(p-fluorophenyl)-3-hydroxypropyl]-4-(p-hydroxyphenyl)-2-azetidinone], the “solubility in ethanol, methanol, and acetone” value (ethanol, methanol, acetone) is “freely to very soluble”. Further, where the note is “water”, the solubility in water result was “practically insoluble”.
